In ChEMBL document CHEMBL4651402, “Screening of ~5500 FDA-approved drugs and clinical candidates for anti-SARS-CoV-2 activity” (2021):
Peptide text beside a SMILES is read from it.

Tested on: SARS-CoV-2
Assay: microbe, parasite or virus in culture
Conditions: Severe acute respiratory syndrome coronavirus 2, Vero C1008, 48 h

| Structure (SMILES) | IC50 | IC50 (read-out: pIC50 (converted)) |
| --- | --- | --- |
| CC(C(=O)O)C1CCC2C3CC=C4C[C@@H](O)CC[C@]4(C)C3CC[C@]12C (some centres not stated) | > 20 µM | > 20 µM |
| CN(CCOc1ccc(CC2SC(=O)NC2=O)cc1)c1ccccn1 (configuration not stated) [ROSIGLITAZONE] | > 20 µM | > 20 µM |
| C=CCC1(C2C=CCCC2)C(=O)NC(=S)NC1=O (configuration not stated) [THIALBARBITAL] | > 20 µM | > 20 µM |
| CCOC(=O)[C@H](CCc1ccccc1)N[C@@H](C)C(=O)N1Cc2ccccc2C[C@H]1C(=O)O | > 20 µM | > 20 µM |
| CCN(CC)CC#CCOC(=O)C(O)(c1ccccc1)C1CCCCC1 (configuration not stated) [OXYBUTYNIN] | > 20 µM | > 20 µM |
| CN1CCOC(c2ccccc2)c2ccccc2C1 (configuration not stated) [NEFOPAM] | > 20 µM | > 20 µM |
| CN(C)Cc1nccn1-c1ccc(NC(=O)c2cc(C(F)(F)F)nn2-c2ccc3onc(N)c3c2)c(F)c1 [RAZAXABAN] | > 20 µM | > 20 µM |
| NCC1CCC(C(=O)O)CC1 (configuration not stated) | > 20 µM | > 20 µM |
| CC[C@H]1OC(=O)[C@H](C)[C@@H](O[C@H]2C[C@@](C)(OC)[C@@H](O)[C@H](C)O2)[C@H](C)[C@@H](O[C@@H]2O[C@H](C)C[C@H](N(C)C(C)C)[C@H]2O)[C@@]2(C)CC(C)=C(O2)[C@H](C)[C@@H](O)[C@]1(C)O [IDREMCINAL] | > 20 µM | > 20 µM |
| NC(=O)c1cnc(N[C@@H]2CCCC[C@@H]2N)nc1Nc1cccc(-n2nccn2)c1 | > 20 µM | > 20 µM |
| CN1CCC[C@H]1c1cccnc1 [NICOTINE] | > 20 µM | > 20 µM |
| CN1C(=O)OC(C)(C)C1=O [TRIMETHADIONE] | > 20 µM | > 20 µM |
| C#CCN(C)C(C)Cc1ccccc1 (configuration not stated) | > 20 µM | > 20 µM |
| CC1CC2(C)C3CCC4(C)C(O)CCC4C3CC[C@H]2CC1=O (some centres not stated) | > 20 µM | > 20 µM |
| C=CC(=O)N(C)CCOc1c(N)ncnc1-c1cc(F)cc(NC(=O)c2ccc(C3CC3)cc2F)c1C [REMIBRUTINIB] | > 20 µM | > 20 µM |
| CC(=O)Nc1ccc(S(=O)(=O)Nc2ccc([N+](=O)[O-])cc2)cc1 | > 20 µM | > 20 µM |
| CC(=O)O[C@]1(C(C)=O)CC[C@H]2[C@@H]3C=C(C)C4=CC(=O)CC[C@@H]4[C@H]3CC[C@@]21C [NOMEGESTROL ACETATE] | > 20 µM | > 20 µM |
| C[n+]1ccccc1C=NO [PRALIDOXIME] | > 20 µM | > 20 µM |
| COc1cc(/C=C2\CCC/C(=C\c3ccc(O)c(OC)c3)C2=O)ccc1O [CYCLOVALONE] | > 20 µM | > 20 µM |
| CCC1(CC(=O)O)OCC(Cc2ccccc2)c2c1[nH]c1ccccc21 (configuration not stated) [PEMEDOLAC] | > 20 µM | > 20 µM |
| Cc1cc(/C=C/c2ccc3cc(N(C)C)ccc3[n+]2C)c(C)n1-c1ccccc1 | > 20 µM | > 20 µM |

| Structure (SMILES) | IC50 | IC50 (read-out: pIC50 (converted)) |
| --- | --- | --- |
| CC(C)(CNC(N)=O)NCC(O)COC(=O)c1ccccc1F (configuration not stated) [FLESTOLOL] | > 20 µM | > 20 µM |
| O=C1c2ccccc2C(=O)C1c1ccccc1 [PHENINDIONE] | > 20 µM | > 20 µM |
| O=C(/N=C(/Nc1cc(F)cc(Cl)c1)Nc1cc(C(F)(F)F)[nH]n1)c1cccc(Cl)c1 | > 20 µM | > 20 µM |
| Fc1ccc(C(c2ccc(F)cc2)N2CCN(C/C=C\c3ccccc3)CC2)cc1 | > 20 µM | > 20 µM |
| CC(=O)OC1CCC2(C)C(=CCC3C2CCC2(C)C(OC(=O)c4ccccc4)CCC32)C1 (configuration not stated) | > 20 µM | > 20 µM |
| COc1ccc2c(OC3CC4C(=O)NC5(C(=O)NS(=O)(=O)C6CC6)CC5/C=C\CCCCN(C)C(=O)C4C3)cc(-c3nc(C(C)C)cs3)nc2c1C (configuration not stated) | > 20 µM | > 20 µM |
| NC12CC3CC(CC(C3)C1)C2 [AMANTADINE] | > 20 µM | > 20 µM |
| COc1ccc(C(=O)Nc2c(Cl)cncc2Cl)cc1OC1CCCC1 | > 20 µM | > 20 µM |
| c1ccc(C(CCN2CCCCCC2)c2ccccc2)cc1 [PROZAPINE] | > 20 µM | > 20 µM |
| CC(C)=CCC1=C(O)C(=O)c2ccccc2C1=O [LAPACHOL] | > 20 µM | > 20 µM |
| O=c1cc(-c2ccccc2)oc2cc(O)cc(O)c12 [CHRYSIN] | > 20 µM | > 20 µM |
| COc1nc(N)nc2c1ncn2[C@@H]1O[C@H](CO)[C@@H](O)[C@@H]1O [NELARABINE] | > 50.1 µM | > 50.1 µM |
| c1ccc2[nH]ncc2c1 [INDAZOLE] | > 20 µM | > 20 µM |
| CS(=O)(=O)c1ccc([C@@H](O)[C@H](CF)NC(=O)C(Cl)Cl)cc1 | > 20 µM | > 20 µM |
| C#C[C@@]1(O)CCC2C3CCc4cc(OC)ccc4C3CCC21C (some centres not stated) | > 20 µM | > 20 µM |
| Oc1ccc2c(c1)CC[C@H](c1ccccc1)[C@@H]2c1ccc(OCCN2CCCC2)cc1 [LASOFOXIFENE] | > 20 µM | > 20 µM |
| CC(C)N1CCN(c2ccc(N3CCN(c4ccc(OC[C@@H]5OC[C@@](Cn6cncn6)(c6ccc(F)cc6F)O5)cc4)CC3)cc2)C1=O | > 20 µM | > 20 µM |
| COc1ccc(C(=O)N2CCCC2=O)cc1 | > 20 µM | > 20 µM |
| CNC(=O)CCN1CCN(CCC=C2c3ccccc3Sc3ccc(Cl)cc32)CC1 | > 20 µM | > 20 µM |
| C=C[C@H]1CN2CC[C@H]1C[C@H]2[C@H](O)c1ccnc2ccccc12 [CINCHONIDINE] | > 20 µM | > 20 µM |
| CC(=O)O[C@H]1C[C@H](O[C@H]2[C@@H](O)C[C@H](O[C@H]3[C@@H](O)C[C@H](OC4CCC5(C)C(CCC6C5CCC5(C)C(C7=CC(=O)OC7)CCC65O)C4)O[C@@H]3C)O[C@@H]2C)O[C@H](C)[C@H]1O[C@@H]1O[C@H](CO)[C@@H](O)[C@H](O)[C@H]1O (some centres not stated) | > 20 µM | > 20 µM |

| Structure (SMILES) | IC50 | IC50 (read-out: pIC50 (converted)) |
| --- | --- | --- |
| C[N+]1(C)CCN(CC(O)(c2ccccc2)C2CCCCC2)CC1 (configuration not stated) [HEXOCYCLIUM] | > 20 µM | > 20 µM |
| CC(C)(Oc1ccc(C(=O)c2ccc(Cl)cc2)cc1)C(=O)O [FENOFIBRIC ACID] | > 20 µM | > 20 µM |
| Cc1ncc(C[n+]2csc(CCO)c2C)c(N)n1 [THIAMINE ION] | > 20 µM | > 20 µM |
| C=C1C[C@]23C[C@@]1(O)CC[C@H]2[C@@]12C=C[C@H](O)[C@](C)(C(=O)O1)[C@H]2[C@@H]3C(=O)O [GIBBERELLIN GA3] | > 20 µM | > 20 µM |
| [NH-]c1c[n+](N2CCOCC2)no1 [LINSIDOMINE] | > 20 µM | > 20 µM |
| CC(C)C(N)C(=O)NC(Cc1ccc(O)cc1)C(=O)O (stereo not drawn) (H-Val-Tyr-OH; configuration not given here) | > 20 µM | > 20 µM |
| CC(C)C1NC(=O)[C@@H](C(C)C)OC(=O)[C@H](C(C)C)NC(=O)[C@H](C)OC(=O)[C@@H](C(C)C)NC(=O)[C@@H](C(C)C)OC(=O)[C@H](C(C)C)NC(=O)[C@H](C)OC(=O)[C@@H](C(C)C)NC(=O)[C@@H](C(C)C)OC(=O)[C@H](C(C)C)NC(=O)[C@H](C)OC1=O (some centres not stated) | > 20 µM | > 20 µM |
| CC(=O)N[C@H]1[C@H]([C@H](O)[C@H](O)CO)OC(C(=O)O)=C[C@@H]1NC(=N)N [ZANAMIVIR] | > 20 µM | > 20 µM |
| COc1c2c(cc3c1OCO3)CCN(C)C2 [HYDROCOTARNINE] | > 20 µM | > 20 µM |
| O=P(O)(O)OCC(O)CO (configuration not stated) | > 20 µM | > 20 µM |
| OCC1OC(Oc2ccc(O)cc2)C(O)C(O)C1O (configuration not stated) | > 20 µM | > 20 µM |
| CCC(NC(C)C)C(O)c1ccc(O)c2[nH]c(=O)ccc12 (configuration not stated) [PROCATEROL] | > 20 µM | > 20 µM |
| CN(C)CCOc1ccc(/C(=C(\CCCl)c2ccccc2)c2ccccc2)cc1 | > 20 µM | > 20 µM |
| O=P(O)(O)OC[C@H](O)CO | > 20 µM | > 20 µM |
| [2H]C1([2H])[C@H]2C[C@@H](Oc3ccc(C(F)(F)F)cn3)[C@H](C2)N1C(=O)c1cccc(F)c1-c1ncccn1 [TEBIDEUTOREXANT] | > 20 µM | > 20 µM |
| Cc1cccc(Cl)c1NC(=O)/C=C1\SCC(=O)N1C [RALITOLINE] | > 20 µM | > 20 µM |
| N=C(Nc1ccccc1)Nc1ccccc1 | > 20 µM | > 20 µM |
| O=c1c(O)c(-c2ccc(O)cc2)oc2cc(O)cc(O)c12 [KAEMPFEROL] | > 20 µM | > 20 µM |
| NCCCC[C@H](OP(=O)(O)CCCCc1ccccc1)C(=O)N1CCC[C@H]1C(=O)O [CERONAPRIL] | > 20 µM | > 20 µM |
